Laboratory results: PMC2896895 (Cell cycle (Georgetown, Tex.), 2009)

How the values were obtained:
[1] = tested on: AR-dependent luciferase reporter (ARE-Luc) in CWR22R cells; assay: AR-dependent luciferase reporter; assay type: cell-based, human; settings: 10μM of compounds, 24h, vs 0.1% DMSO
C4-2 cells = assay: Colony formation assay, C4-2; assay type: cell-based, human
LNCaP cells = assay: Colony formation assay, LNCaP; assay type: cell-based, human
CWR22R cells = assay: Colony formation / growth assay, CWR22R; assay type: cell-based, human
[2] = tested on: Prostate Specific Antigen (PSA) expression in C4-2 cells; assay: PSA secretion by C4-2 cells; assay type: cell-based, human; settings: 10μM of compounds, 72h, PSA in medium vs 0.1% DMSO
PSA levels = settings: Phase I clinical trial, castration resistant PCa; cited from earlier work
AR LBD = settings: non-competitive antagonists; cited from earlier work
[3] = number of colonies, vs 0.1% DMSO

Structure (SMILES): CC(O)(CS(=O)(=O)c1ccc(F)cc1)C(=O)Nc1ccc(C#N)c(C(F)(F)F)c1 (stereo not shown) [Bic, bicalutamide]
- Activity of ARE-Luc in CWR22R11 cells [1]: 43 % of DMSO
- growth of androgen-independent C4-2 cells (C4-2 cells; colony formation, 10μM): did not suppress growth
- Survival of cells in the presence of 10μM of a compound (DMSO=100%), C4-2 (C4-2 cells; [3]): 91%
- growth of androgen-sensitive LNCaP cells (LNCaP cells; colony formation, 10μM): suppressed growth
- Survival of cells in the presence of 10μM of a compound (DMSO=100%), LNCaP (LNCaP cells; [3]): 19%
- growth of androgen-independent CWR22R cells (CWR22R cells; colony formation, 10μM): did not suppress growth
- Survival of cells in the presence of 10μM of a compound (DMSO=100%), CWR22R (CWR22R cells; [3]): 100%
- PSA secretion in C4-2 cells [2]: 0 % of DMSO

Structure (SMILES): CNC(=O)c1ccc(N2C(=S)N(c3ccc(C#N)c(C(F)(F)F)c3)C(=O)C2(C)C)cc1F [MDV3100]
- PSA levels in patients (PSA levels): efficacy in decreasing PSA levels

Structure (SMILES): CNC(=O)c1ccc(N2C(=S)N(c3ccc(C#N)c(C(F)(F)F)c3)C(=O)C23CCC3)cc1F [RD162]
- binding to the AR LBD (AR LBD): bind with high affinity
